Data published in patent US10106577B2, “Agonists of neurotrophin receptors and their use as medicaments” (BIONURE FARMA, S.L., priority 2010, dated 2018).
“Also recorded” adds a separate entry of the source.

Columns and labels:
[1] = tested on: PC12 cells; assay: Synergistic activity assay (PC12 differentiation in combination with NGF); format: cell-based; details: 100 ng/ml in combination with NGF 100 ng/ml
Protocol: To evaluate if the small molecules G79, G80, and G81 interfere with the maximal activity of NGF or lead to additive effects, PC12 cells were plated into collagen-coated 24-wells plates with 2.5% FBS and treated after 72 h with the small chemicals (each one at 100 ng/ml) in combination with NGF at the concentration of 100 ng/ml. In the same experiment PC12 cells were treated with the small molecules or NGF alone, as controls. The number of differentiated cells was evaluated after three days of treatment. The cell count was done in three randomly selected fields with 100 cells.

[2] = tested on: SH-SY5Y cells; assay: Parkinson's disease in vitro model (MPTP stress, MTT); format: cell-based, human; details: MPTP 100 μM, 24 hrs; pre-treated 3 hours; BDNF 20 ng/ml
Protocol: The human neuroblastoma cell line SH-SY5Y was maintained in culture with 50% Ham's F12 medium and 50% EMEM medium, supplemented with 10% FBS, […] L-glutamine and 1% penicillin/streptomycin. The cell culture was maintained in a humidified atmosphere of 95% air and CO2 at 37° C.
The SH-SY5Y cells after differentiation to neuronal phenotype with retinoic acid, were pre-treated for 3 hours with the test compounds at different concentrations (20 ng/ml, 100 ng/ml, 2 μg/ml, 20 μg/ml and 50 μg/ml) or BDNF (20 ng/ml) as a positive control. Then 1-methyl-4-phenyl-1,2,3,6-tetrahydropyridine (MPTP) (100 μM) was added and incubated for 24 hrs. The number of surviving cells was determined the day after by 3-(4,5-dimethylthiazol-2-yl)-2,5-diphenyltetrazolium bromide (MTT) assay.

[3] = target: T1, TrkA (Rattus norvegicus, UniProt P35739); assay: Western blot analysis of receptor phosphorilation in PC12 cells; format: cell-based; details: G79 100 ng/ml; 5-15-30-60 min
T1 construct: PC12 cells expressing both TrkA and p75 receptors were cultivated in normal growth medium; endogenous in cells; host or cells: PC12
T1 sequence (P35739 33-799): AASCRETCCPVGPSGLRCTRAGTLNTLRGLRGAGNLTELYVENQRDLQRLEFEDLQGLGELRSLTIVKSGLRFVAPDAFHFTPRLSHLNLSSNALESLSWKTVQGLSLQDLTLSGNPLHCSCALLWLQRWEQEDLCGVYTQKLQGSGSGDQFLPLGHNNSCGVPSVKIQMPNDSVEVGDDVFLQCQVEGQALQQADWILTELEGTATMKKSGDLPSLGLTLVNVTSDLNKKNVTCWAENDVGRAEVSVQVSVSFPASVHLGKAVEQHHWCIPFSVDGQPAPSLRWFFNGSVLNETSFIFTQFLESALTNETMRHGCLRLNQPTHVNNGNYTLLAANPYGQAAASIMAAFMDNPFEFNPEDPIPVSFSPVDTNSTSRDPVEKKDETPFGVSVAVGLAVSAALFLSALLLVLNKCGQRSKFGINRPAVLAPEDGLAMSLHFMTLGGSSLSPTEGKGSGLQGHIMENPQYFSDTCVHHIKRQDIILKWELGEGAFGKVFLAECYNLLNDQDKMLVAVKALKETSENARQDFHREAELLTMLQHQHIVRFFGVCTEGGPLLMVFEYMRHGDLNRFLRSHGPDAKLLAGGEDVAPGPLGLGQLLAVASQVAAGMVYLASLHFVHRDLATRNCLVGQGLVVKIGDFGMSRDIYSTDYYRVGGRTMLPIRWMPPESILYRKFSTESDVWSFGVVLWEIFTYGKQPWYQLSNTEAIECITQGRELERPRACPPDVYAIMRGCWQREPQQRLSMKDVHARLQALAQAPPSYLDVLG
Protocol: (§1) Neurotrophin receptors TrkA and TrkB activation (phosphorilation) was evaluated by Western-blot as follows: PC12 cell growing on 24-well plates were treated with low serum medium (0.5% FBS) to reduce the basal level of phosphorilation. After 24 h, the PC12 cells were treated with G79 (100 ng/ml), then recovered and lysated in 300 μl of ice-cold lysis buffer (Sigma Aldrich) at 5-15-30-60 min. After sonication, cell debris were removed by centrifugation (14000 rpm for 10 min) and equal amount of supernatant (30-35 μg/well) were loaded and separated by 10% polyacrilamide gel electrophoresis (PAGE) and then electrobloted onto PVDF membranes. Membranes were blocked by 5% nonfat milk and then sequentially incubated with the primary antibodies [phospho-TrkA, Tyr490 (Cell Signaling) or phospho-TrkB, Tyr515 (NovusBiological)] 1:1000 over-night and the secondary antibodies 1:2000, for 1 h at room temperature. Blots were processed for visualization by chemiluminescence system (Amersham) and exposed to Kodak film to visualize the fluorographic image.

[4] = target: T2, TrkB (Rattus norvegicus, UniProt Q63604); assay: as above; format: cell-based; details: G79 100 ng/ml; 5-15-30-60 min
T2 construct: endogenous in cells; host or cells: PC12
T2 sequence (Q63604 32-821): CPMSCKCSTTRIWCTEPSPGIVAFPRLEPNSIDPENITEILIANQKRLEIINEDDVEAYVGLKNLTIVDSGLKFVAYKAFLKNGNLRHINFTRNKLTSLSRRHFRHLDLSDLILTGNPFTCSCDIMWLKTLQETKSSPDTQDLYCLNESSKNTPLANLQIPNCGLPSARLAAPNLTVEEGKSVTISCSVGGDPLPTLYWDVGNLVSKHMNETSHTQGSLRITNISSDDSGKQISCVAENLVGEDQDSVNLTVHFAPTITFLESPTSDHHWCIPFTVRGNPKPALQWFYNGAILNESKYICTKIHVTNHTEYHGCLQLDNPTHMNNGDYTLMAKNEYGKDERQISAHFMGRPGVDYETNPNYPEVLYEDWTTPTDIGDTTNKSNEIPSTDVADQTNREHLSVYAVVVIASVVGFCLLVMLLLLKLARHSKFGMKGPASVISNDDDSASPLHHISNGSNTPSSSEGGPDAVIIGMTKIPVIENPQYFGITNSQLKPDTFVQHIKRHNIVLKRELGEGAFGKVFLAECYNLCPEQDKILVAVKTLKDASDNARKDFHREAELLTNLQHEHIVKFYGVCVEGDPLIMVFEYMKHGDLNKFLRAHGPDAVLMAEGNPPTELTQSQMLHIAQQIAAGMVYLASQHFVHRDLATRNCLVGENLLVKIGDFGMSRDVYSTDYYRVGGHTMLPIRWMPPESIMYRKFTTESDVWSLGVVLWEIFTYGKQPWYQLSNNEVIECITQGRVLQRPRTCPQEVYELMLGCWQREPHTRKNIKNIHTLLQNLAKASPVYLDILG
Protocol: as §1

[5] = target: T1, TrkA; assay: Cytometry binding assay in PC12 with antibody anti-p75; details: pre-incubation with the antibody anti-p75; growing NGF
Protocol: In order to assess the binding of G79 to the TrkA (PC12 cells) and TrkB receptors (SH-SY5Y), we performed competitive binding assays by flow cytometry. In order to assess the binding competition between p75 and TrkA, PC12 cells expressing both TrkA and p75 receptors were cultivated in normal growth medium. After detaching cells by trypsin solution, 200,000 cells/well were added to tubes for the following incubations. One tube contains control untreated cells. In the other tubes, cells were pre-incubated for 45 minutes with different concentrations of NGF (0-10-20-50-100 ng/ml), that can directly bind both TrkA and p75 receptors, blocking the possible binding of G79 if it competes for the same receptors. Then, without washing the cells, G79 conjugated with FITC fluorescence (100 ng/ml) was added and so incubated the cells for 1 hour. Samples were read in a cytometer (FCAScan).
To detect the binding separately on both receptors, a prior incubation of cells (before NGF incubation) with blocking antibodies was made. The cells were preincubated for 1 hour with blocking antibody anti-p75 (1:100; Chemicon Int.), to detect the binding on TrkA, or blocking antibody anti-TrkA (1:200; AbCam) to detect the binding on p75. […] All the results are expressed as mean channel fluorescence (MCF), which is a measure of the cell surface fluorescence produced by G79-FITC binding.

Row | SMILES | number of differentiated cells [1] | protection of neuronal cells against MPTP (surviving cells, MTT) [2] | TrkA phosphorilation (phospho-TrkA, Tyr490) [3] | TrkB phosphorilation (phospho-TrkB, Tyr515) [4] | binding on TrkA (MCF of G79-FITC) [5]
1 | CC(C)CN(CC(=O)N(CCCN1CCCC1=O)CC(N)=O)C(=O)CNCCc1ccccc1F [Compound G79, [N-(2-(2′-Fluorophenyl)ethyl)glycyl]-[N-(2-methylpropyl)glycyl]-N-[3-(2′-oxopyrrolidinyl)propyl]glycinamide] | 11.3±2.6 | Prevent Neuronal Death; also recorded: significant protection of neuronal cells | phosphorilated already after 5 min | phosphorilated already after 5 min | apparently does not compete with NGF for the binding on TrkA
2 | CC(C)CN(CC(=O)N(CCc1ccc(S(N)(=O)=O)cc1)CC(N)=O)C(=O)CNCCc1ccccc1F [Compound G80, [N-(2-(2′-Fluorophenyl)ethyl)glycyl]-[N-(2-methylpropyl)glycyl]-N-[2-(4′-sulfamoylphenyl)ethyl]glycinamide] | 13±5.9 | Prevent Neuronal Death | – | – | –
3 | CC(C)CN(CC(=O)N(CCc1ccc(S(N)(=O)=O)cc1)CC(N)=O)C(=O)CNCCN1CCCC1 [Compound G81, [N-(2-(1-Pyrrolidinyl)ethyl)glycyl]-[N-(2-methylpropyl)glycyl]-N-[2-(4′-sulfamoylphenyl)ethyl]glycinamide] | 13.3±3.8 | Prevent Neuronal Death | – | – | –
